Each block holds one compound with its values, some of them ahead of it.
Columns and labels:
[1] = molecular target: T1, TRPA1 (Mus musculus, UniProt Q8BLA8); test: Electron microscopy of lamellar body secretion between stratum corneum and stratum granulosum; assay type: in vivo, hairless mice; conditions: pretreatment with antagonist; short exposure to low temperature; FIG. 4c
T1 construct: TRPA1 in mouse epidermis was determined to positively immunostained; from tissue; host or cells: skin (epidermis) of living male HR-1 hairless mice

[2] = molecular target: T1, TRPA1; test: Barrier recovery after tape stripping, measured by transepidermal water loss (TEWL); assay type: in vivo, hairless mice; conditions: for Barrier recovery (TEWL recovery rate): local application of 100 μl of 0.5 mM agonist solution immediately after tape stripping
Procedure: Male hairless mice age 7 to 10 weeks (HR-1, Hoshino Laboratory Animals, Inc., Japan) were used in all experiments. Measurement of skin barrier function, barrier destruction and application of test samples were carried out while the animals were anesthetized with Nembutal.
Permeability barrier function was evaluated on the basis of measurement results for transepidermal water loss (TEWL) obtained using an electrical moisture analyzer (Meeco Inc.) in the manner previously described (Denda, et al., J. Invest. Dermatol., 111, 858-863 (1998): Non-Patent Document 10). In the barrier recovery experiment, treatment was carried out on the animals consisting of repeatedly carrying out tape stripping on skin on both sides of the abdomen until TEWL reached 7 to 10 mg/cm^2/hr. The effects of each treatment were investigated by measuring at two locations on the sides of the abdomen using four mice. Next, TEWL values at the same sites were measured at 1, 3, 6 and 24 hours after barrier destruction. In order to avoid the effects of circadian rhythm, the speed of barrier recovery was investigated immediately after destroying the skin barrier between the hours of 7:00 AM and 8:00 AM. The results for barrier recovery were expressed in terms of recovery rate (%). This is because the degree of barrier destruction varies from day to day. Recovery rate was calculated for each mouse using the following formula:
[(TEWL immediately after barrier destruction−TEWL at indicated time)/(TEWL immediately after barrier destruction−TEWL basal value)]×100%
The effects of TRPA1 agonist on undamaged skin of hairless mice were first evaluated. The skin permeability barrier was destroyed by tape stripping followed immediately thereafter by application of 100 μl of agonist solution. […] Next, the surface of the skin on one side of the abdomen was chilled (10 to 15° C.) for 1 minute using a cold insulator. The other side of the abdomen was maintained at 35 to 36° C. using a heating pad. The temperatures of both sides of the abdomen were monitored with a thermometer (Data Logger Thermometer MT-309, Mother Tool Co., Ltd.).

[3] = molecular target: TRPV1 (Homo sapiens, UniProt Q8NER1); conditions: cited from earlier work
[4] = molecular target: TRPV4 (Homo sapiens, UniProt Q9HBA0); conditions: common TRP inhibitor; TRPV4 activated by heat (36 to 40° C.) or agonist; cited from earlier work
TRPV4, sequence (Q9HBA0 whole entry, species assumed): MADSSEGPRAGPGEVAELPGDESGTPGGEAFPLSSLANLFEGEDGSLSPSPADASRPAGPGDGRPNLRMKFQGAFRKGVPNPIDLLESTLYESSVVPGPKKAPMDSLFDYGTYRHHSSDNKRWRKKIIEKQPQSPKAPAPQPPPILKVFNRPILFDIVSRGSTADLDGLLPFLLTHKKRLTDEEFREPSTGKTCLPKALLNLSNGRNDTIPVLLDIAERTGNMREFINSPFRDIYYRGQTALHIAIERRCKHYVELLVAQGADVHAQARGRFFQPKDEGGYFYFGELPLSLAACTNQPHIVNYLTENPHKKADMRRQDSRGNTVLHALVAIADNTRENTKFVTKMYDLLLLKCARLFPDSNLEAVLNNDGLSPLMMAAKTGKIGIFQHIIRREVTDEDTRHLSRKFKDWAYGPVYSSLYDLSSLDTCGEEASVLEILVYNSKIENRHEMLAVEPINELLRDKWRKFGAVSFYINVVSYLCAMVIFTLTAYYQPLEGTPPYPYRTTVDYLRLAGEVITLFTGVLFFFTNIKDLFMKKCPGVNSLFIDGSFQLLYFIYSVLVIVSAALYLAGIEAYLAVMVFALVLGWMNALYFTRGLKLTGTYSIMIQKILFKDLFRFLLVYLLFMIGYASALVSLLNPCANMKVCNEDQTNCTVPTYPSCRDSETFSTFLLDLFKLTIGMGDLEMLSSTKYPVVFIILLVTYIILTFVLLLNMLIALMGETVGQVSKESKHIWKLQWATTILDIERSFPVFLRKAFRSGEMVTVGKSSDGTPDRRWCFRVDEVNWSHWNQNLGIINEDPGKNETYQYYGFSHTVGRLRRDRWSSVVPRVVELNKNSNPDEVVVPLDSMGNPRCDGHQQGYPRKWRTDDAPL

T1 sequence (Q8BLA8 whole entry): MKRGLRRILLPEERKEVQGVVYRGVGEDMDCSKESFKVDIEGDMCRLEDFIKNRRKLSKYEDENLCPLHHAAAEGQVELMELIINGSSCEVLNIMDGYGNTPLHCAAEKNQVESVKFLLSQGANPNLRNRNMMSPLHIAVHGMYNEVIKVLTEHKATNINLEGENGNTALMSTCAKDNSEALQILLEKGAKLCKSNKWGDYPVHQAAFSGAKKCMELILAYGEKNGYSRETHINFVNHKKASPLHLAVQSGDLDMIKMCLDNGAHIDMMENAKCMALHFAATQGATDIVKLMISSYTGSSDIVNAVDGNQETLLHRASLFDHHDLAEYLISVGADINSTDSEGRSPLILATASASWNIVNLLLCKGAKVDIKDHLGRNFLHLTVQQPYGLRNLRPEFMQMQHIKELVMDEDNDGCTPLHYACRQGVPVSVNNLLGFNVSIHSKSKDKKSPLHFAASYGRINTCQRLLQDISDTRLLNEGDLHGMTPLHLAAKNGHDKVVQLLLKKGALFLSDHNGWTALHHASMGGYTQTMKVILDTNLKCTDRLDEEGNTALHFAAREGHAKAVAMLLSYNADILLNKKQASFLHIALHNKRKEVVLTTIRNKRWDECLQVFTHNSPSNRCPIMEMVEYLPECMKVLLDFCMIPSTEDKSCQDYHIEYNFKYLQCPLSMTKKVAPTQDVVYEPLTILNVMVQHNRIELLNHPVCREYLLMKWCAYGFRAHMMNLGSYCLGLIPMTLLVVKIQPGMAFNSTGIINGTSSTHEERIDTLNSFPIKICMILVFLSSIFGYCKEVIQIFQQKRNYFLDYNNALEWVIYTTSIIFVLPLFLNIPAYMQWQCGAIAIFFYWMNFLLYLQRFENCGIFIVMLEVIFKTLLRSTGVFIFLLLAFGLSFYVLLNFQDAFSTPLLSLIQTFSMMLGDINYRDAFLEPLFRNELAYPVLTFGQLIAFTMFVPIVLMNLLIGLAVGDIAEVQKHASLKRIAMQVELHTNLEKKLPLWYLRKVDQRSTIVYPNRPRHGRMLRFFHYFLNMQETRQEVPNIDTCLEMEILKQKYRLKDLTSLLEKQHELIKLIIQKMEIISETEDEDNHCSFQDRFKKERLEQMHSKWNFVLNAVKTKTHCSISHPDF
TRPV1, sequence (Q8NER1 whole entry, species assumed): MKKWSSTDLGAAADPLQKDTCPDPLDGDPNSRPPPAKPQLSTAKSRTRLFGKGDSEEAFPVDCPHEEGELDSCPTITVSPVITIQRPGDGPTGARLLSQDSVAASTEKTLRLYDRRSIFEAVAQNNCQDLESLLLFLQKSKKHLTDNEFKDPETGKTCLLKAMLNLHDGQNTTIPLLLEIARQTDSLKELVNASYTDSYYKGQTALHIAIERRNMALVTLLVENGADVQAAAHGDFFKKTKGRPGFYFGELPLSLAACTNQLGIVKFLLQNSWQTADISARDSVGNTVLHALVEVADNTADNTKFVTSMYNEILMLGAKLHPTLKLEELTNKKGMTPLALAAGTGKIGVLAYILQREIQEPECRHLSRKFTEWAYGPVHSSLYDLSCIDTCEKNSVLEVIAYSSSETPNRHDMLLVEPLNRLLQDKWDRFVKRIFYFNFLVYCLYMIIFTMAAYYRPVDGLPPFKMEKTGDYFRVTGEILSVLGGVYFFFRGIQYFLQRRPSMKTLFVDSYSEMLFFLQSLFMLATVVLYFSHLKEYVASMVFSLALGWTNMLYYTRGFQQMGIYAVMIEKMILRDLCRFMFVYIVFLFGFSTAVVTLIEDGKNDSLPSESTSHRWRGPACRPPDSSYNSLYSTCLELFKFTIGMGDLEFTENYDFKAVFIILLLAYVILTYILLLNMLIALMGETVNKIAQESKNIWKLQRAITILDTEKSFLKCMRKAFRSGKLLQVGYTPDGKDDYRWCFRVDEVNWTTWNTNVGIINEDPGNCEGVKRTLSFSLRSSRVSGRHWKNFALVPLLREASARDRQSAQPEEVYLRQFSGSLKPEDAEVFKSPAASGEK

Effect on low-temperature-accelerated secretion of lamellar bodies [1]: inhibited
Effect on barrier recovery acceleration by allyl isothiocyanate or cinnamaldehyde ([2]; pretreatment with 50 μM antagonist, FIG. 1): inhibited
Effect on barrier recovery acceleration by 1 minute of cooling (10 to 15° C.) ([2]; pretreatment with antagonist, FIG. 2): inhibited
SMILES: CC(C)c1ccc(NC(=O)Cn2cnc3c2c(=O)n(C)c(=O)n3C)cc1 [HC030031, 2-(1,3-dimethyl-2,6-dioxo-1,2,3,6-tetrahydro-7H-purin-7-yl)-N-(4-isopropylphenyl)acetoamide]

SMILES: C=CCN=C=S [allyl isothiocyanate]
Barrier recovery (TEWL recovery rate) ([2]; FIG. 1): accelerated

SMILES: COc1cc(CNC(=O)CCCC/C=C/C(C)C)ccc1O [capsaicin]
Repair of the skin barrier ([3]; TRPV1 activated after destroying the skin barrier): delayed

SMILES: Oc1cc2c(cc1O)CN(C(=S)NCCc1ccc(Cl)cc1)CCC2 [capsazepine]
Effect on delay of barrier repair caused by TRPV1 activation ([3]; TRPV1 antagonist): inhibited

SMILES: O=CC=Cc1ccccc1 [cinnamaldehyde]
Barrier recovery (TEWL recovery rate) ([2]; FIG. 1): accelerated

SMILES: N.N.N.N.N.N.N.N.N.N.N.N.N.N.[Cl-].[Cl-].[Cl-].[Cl-].[Cl-].[Cl-].[O-2].[O-2].[Ru+3].[Ru+3].[Ru+4] [ruthenium red]
Effect on barrier repair acceleration by TRPV4 activation [4]: inhibited

From US20120148690A1, “SKIN BARRIER FUNCTION RECOVERY ACCELERATOR” (SHISEIDO COMPANY, LTD., priority 2010, published 2012)
